For 41 molecules, IC50 results are on record in US9018383B2, “Acylamino-substituted cyclic carboxylic acid derivatives and their use as pharmaceuticals” (Sanofi, priority 2009, dated 2015).

The assay deals with human Edg-2 receptor (Homo sapiens, UniProt Q92633). Kind of assay: Determination of Edg-2 receptor inhibition by FLIPR measurements (LPA-mediated calcium liberation). The class given is cell-based. The following applies: CHO cells overexpressing human Edg-2 receptor, LPA 100 nM, fluo-4 calcium fluorescence; read-out: Inhibitory concentrations IC50 for inhibition of the Edg-2 receptor. Summed up: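 CHO cells stably overexpressing human Edg-2, loaded with fluo-4 AM, were pre-incubated ~5 min with compound (≤0.3% DMSO), then stimulated with 100 nM LPA 18:1 in HBSS/HEPES/probenecid, pH 7.5. Peak calcium fluorescence over ~3 min, baseline-corrected, versus DMSO gave % inhibition; IC50 from triplicates.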
Sequence of human Edg-2 receptor (Q92633 whole entry): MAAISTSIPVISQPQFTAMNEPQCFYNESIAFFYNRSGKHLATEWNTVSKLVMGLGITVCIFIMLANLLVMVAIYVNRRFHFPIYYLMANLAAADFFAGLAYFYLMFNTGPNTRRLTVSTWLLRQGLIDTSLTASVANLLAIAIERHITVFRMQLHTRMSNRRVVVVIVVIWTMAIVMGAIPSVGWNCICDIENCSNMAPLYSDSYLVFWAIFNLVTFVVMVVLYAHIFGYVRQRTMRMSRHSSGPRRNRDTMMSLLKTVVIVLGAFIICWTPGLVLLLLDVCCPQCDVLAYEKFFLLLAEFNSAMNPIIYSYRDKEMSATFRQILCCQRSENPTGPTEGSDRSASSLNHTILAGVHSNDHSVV
`CC[C@H]1CC[C@@](NC(=O)c2ccc(OC)c(OCCc3cccc(Cl)c3)c2)(C(=O)O)CC1` [Example 207]: the IC50 was less than 100 nM.

`CCc1ncc(C(=O)N[C@]2(C(=O)O)CC[C@@H](CC)CC2)cc1OCCc1cccc(Cl)c1` [Example 438, trans-1-({5-[2-(3-Chloro-phenyl)-ethoxy]-6-ethyl-pyridine-3-carbonyl}-amino)-4-ethyl-cyclohexanecarboxylic acid]: the IC50 was less than 100 nM.

As to `CC[C@H]1CC[C@](NC(=O)c2ccc(CO)c(-c3cccc(C(F)(F)F)c3)c2)(C(=O)O)CC1` [Example 430, cis-4-Ethyl-1-[(6-hydroxymethyl-3′-trifluoromethyl-biphenyl-3-carbonyl)-amino]-cyclohexanecarboxylic acid], the IC50 fell in the range of 100 to 1000 nM.

Take `COc1ccc(C(=O)NC2(C(=O)O)CCCCC2C)cc1OCCc1cccc(C)c1` (centres unmarked) [Example 32]: the IC50 was 1000 to 30000 nM.

For `CC[C@H]1CC[C@](NC(=O)c2cc(F)c(OC)c(-c3cnc(OC)c(Cl)c3)c2)(C(=O)O)CC1` [Example 450, 1-[3-(5-Chloro-6-methoxy-pyridin-3-yl)-5-fluoro-4-methoxy-benzoylamino]-4-ethyl-cyclohexanecarboxylic acid], the IC50 is less than 100 nM.

In the case of `COc1ccc(C(=O)N[C@]2(C(=O)O)CC[C@H](C)CC2)cc1-c1cccc(OC(F)(F)F)c1` [Example 329], the IC50 was less than 100 nM.

Regarding `COc1ncc(C(=O)N[C@]2(C(=O)O)CC[C@H](C(F)(F)F)CC2)cc1-c1cc(F)c(F)c(F)c1` [Example 375], the IC50 is less than 100 nM.

With `CC[C@H]1CC[C@](NC(=O)c2cnc(OC)c(-c3ccc(F)c(F)c3)c2)(C(=O)O)CC1` [Example 359, cis-1-{[5-(3,4-Difluoro-phenyl)-6-methoxy-pyridine-3-carbonyl]-amino}-4-ethyl-cyclohexanecarboxylic acid], the IC50 was less than 100 nM.

Turning to `Cc1cccc(CCOc2cc(C(=O)NC3(C(=O)O)CCCCCC3)cc3c2OCO3)c1` [Example 132, 1-{[7-(2-m-Tolyl-ethoxy)-benzo[1,3]dioxole-5-carbonyl]-amino}-cycloheptanecarboxylic acid], the IC50 is less than 100 nM.

Take `COc1ncc(-c2cc(C(=O)N[C@]3(C(=O)O)CC[C@@H](C)CC3)cc(F)c2OC)cc1Cl` [Example 449, 1-[3-(5-Chloro-6-methoxy-pyridin-3-yl)-5-fluoro-4-methoxy-benzoylamino]-4-methyl-cyclohexanecarboxylic acid]: the IC50 lay in the range of 100 to 1000 nM.

With `CC[C@H]1CC[C@](NC(=O)c2ccc(OC)c(OCCc3cccc(OC(F)(F)F)c3)c2)(C(=O)O)CC1` [Example 403, cis-4-Ethyl-1-{4-methoxy-3-[2-(3-trifluoromethoxy-phenyl)-ethoxy]-benzoylamino}-cyclohexanecarboxylic acid], the IC50 is less than 100 nM.

For the molecule `COc1ccc(-c2cc(C(=O)N[C@]3(C(=O)O)CC[C@@H](C)CC3)cc(F)c2OC)cc1Cl` [Example 446, Trans-1-[(3′-Chloro-5-fluoro-6,4′-dimethoxy-biphenyl-3-carbonyl)-amino]-4-methyl-cyclohexanecarboxylic acid], the IC50 is less than 100 nM.

Take `COc1ccc(C(=O)N[C@]2(C(=O)O)CC[C@@H](C)CC2)cc1-c1cccc(OC(F)(F)F)c1` [Example 330]: the IC50 lay within 1000 to 30000 nM.

Regarding `CC[C@H]1CC[C@](NC(=O)c2ccc(OC)c(-c3cccc(C4COC4)c3)c2)(C(=O)O)CC1` [Example 458, Cis-4-Ethyl-1-[(6-methoxy-3′-oxetan-3-yl-biphenyl-3-carbonyl)-amino]-cyclohexanecarboxylic acid], the IC50 is less than 100 nM.

As for `COc1ncc(C(=O)N[C@]2(C(=O)O)CC[C@@H](C)CC2)cc1-c1cccc(OC(F)(F)F)c1` [Example 308], the IC50 was less than 100 nM.

Regarding `COc1ncc(C(=O)N[C@]2(C(=O)O)CC[C@H](C)CC2)cc1-c1cccc(Cl)c1Cl` [Example 310], the IC50 is less than 100 nM.

Take `CC[C@H]1CC[C@](NC(=O)c2cc(F)c(OCCO)c(-c3cccc(OC(F)(F)F)c3)c2)(C(=O)O)CC1` [Example 382]: the IC50 was less than 100 nM.

Regarding `CC[C@H]1CC[C@@](NC(=O)c2ccc(CO)c(-c3cccc(C(F)(F)F)c3)c2)(C(=O)O)CC1` [Example 431, trans-4-Ethyl-1-[(6-hydroxymethyl-3′-trifluoromethyl-biphenyl-3-carbonyl)-amino]-cyclohexanecarboxylic acid], the IC50 was 100 to 1000 nM.

For `COc1ccc(C(=O)N[C@]2(C(=O)O)CC[C@@H](C)CC2)cc1-c1cccc(C(F)(F)F)c1` [Example 334], the IC50 is 100 to 1000 nM.

On to `CC[C@H]1CC[C@@](NC(=O)c2cc(F)c(OCCO)c(-c3cccc(C(F)(F)F)c3)c2)(C(=O)O)CC1` [Example 362, trans-4-Ethyl-1-{[5-fluoro-6-(2-hydroxy-ethoxy)-3′-trifluoromethyl-biphenyl-3-carbonyl]-amino}-cyclohexanecarboxylic acid], for which the IC50 is less than 100 nM.

For the molecule `COc1ncc(C(=O)NC2(C(=O)O)CCCCCC2)cc1-c1cccc(Cl)c1` [Example 94, 1-{[5-(3-chloro-phenyl)-6-methoxy-pyridyl-3-carbonyl]-amino}-cycloheptanecarboxylic acid], the IC50 lay within 100 to 1000 nM.

Take `CC[C@H]1CC[C@](NC(=O)c2cc(OCCc3cccc(C)c3)c3c(c2)OC(F)(F)O3)(C(=O)O)CC1` [Example 456, Cis-1-{[2,2-Difluoro-7-(2-m-tolyl-ethoxy)-benzo[1,3]dioxole-5-carbonyl]-amino}-4-ethyl-cyclohexanecarboxylic acid]: the IC50 is less than 100 nM.

For the molecule `CC[C@H]1CC[C@](NC(=O)c2cnc(OC)c(-c3cccc(C(F)(F)F)c3)c2)(C(=O)O)CC1` [Example 303], the IC50 was less than 100 nM.

For `COc1ccc(C(=O)NC2(C(=O)O)C[C@H]3CC[C@]2(C)C3(C)C)cc1OCCc1cccc(C)c1` (some centres unmarked) [Example 39], the IC50 lay in the range of 1000 to 30000 nM.

For the molecule `CC[C@H]1CC[C@](C(=O)O)(N(C)C(=O)c2ccc(OC)c(OCCc3cccc(C)c3)c2)CC1` [Example 441, trans-4-Ethyl-1-{[4-methoxy-3-(2-m-tolyl-ethoxy)-benzoyl]-methyl-amino}-cyclohexanecarboxylic acid], the IC50 lay within 1000 to 30000 nM.

Consider `COc1c(F)cc(C(=O)NC2(C(=O)O)CCCCCC2)cc1OCCc1cccc(C)c1` [Example 70, 1-[3-Fluoro-4-methoxy-5-(2-m-tolyl-ethoxy)-benzoylamino]-cycloheptanecarboxylic acid], for which the IC50 was less than 100 nM.

Turning to `COc1ccc(C(=O)NC2(C(=O)O)CCCCCC2)c(F)c1OCCc1cccc(C)c1` [Example 69, 1-[2-Fluoro-4-methoxy-3-(2-m-tolyl-ethoxy)-benzoylamino]-cycloheptanecarboxylic acid], the IC50 fell in the range of 100 to 1000 nM.

As for `CC[C@H]1CC[C@](NC(=O)c2ccc(OCCO)c(OCCc3cccc(Cl)c3)c2)(C(=O)O)CC1` [Example 419, cis-1-[3-[2-(3-Chloro-phenyl)-ethoxy]-4-(2-hydroxy-ethoxy)-benzoylamino]-4-ethyl-cyclohexanecarboxylic acid], the IC50 was less than 100 nM.

On to `COc1ccc(C(=O)NC2(C(=O)O)CCC(C(C)C)CC2)cc1OCCc1cccc(C)c1` (centres unmarked) [Example 29], for which the IC50 was less than 100 nM.

With `CC[C@H]1CC[C@](NC(=O)c2cnc(OC)c(-c3ccc(F)cc3)c2)(C(=O)O)CC1` [Example 407], the IC50 was less than 100 nM.

For `COc1ccc(C(=O)N[C@]2(C(=O)O)CC[C@H](C(F)(F)F)CC2)cc1-c1cccc(C2COC2)c1` [Example 459, 1-[(6-Methoxy-3′-oxetan-3-yl-biphenyl-3-carbonyl)-amino]-4-trifluoromethyl-cyclohexanecarboxylic acid], the IC50 is less than 100 nM.

`COc1ncc(C(=O)N[C@]2(C(=O)O)CC[C@@H](C(C)(C)C)CC2)cc1OCCc1cccc(C)c1` [Example 89, trans-4-tert-Butyl-1-{[6-methoxy-5-(2-m-tolyl-ethoxy)-pyridine-3-carbonyl]-amino}-cyclohexanecarboxylic acid]: the IC50 lay in the range of 1000 to 30000 nM.

Consider `COc1ncc(C(=O)N[C@]2(C(=O)O)CC[C@@H](C)CC2)cc1-c1cccc(C(F)(F)F)c1` [Example 318], for which the IC50 was less than 100 nM.

With `COc1ccc(C(=O)NC2(C(=O)O)CC2)cc1OCCc1cccc(C)c1` [Example 368], the IC50 fell in the range of 100 to 1000 nM.

In the case of `COc1ccc(C(=O)NC2(C(=O)O)CCCCCC2)cc1OCCc1cccs1` [Example 6], the IC50 lay within 100 to 1000 nM.

In the case of `CC[C@H]1CC[C@](NC(=O)c2cnc(OC)c(OCCc3cccc(C)c3)c2)(C(=O)O)CC1` [Example 396, cis-4-Ethyl-1-{[6-methoxy-5-(2-m-tolyl-ethoxy)-pyridine-3-carbonyl]-amino}-cyclohexanecarboxylic acid], the IC50 is less than 100 nM.

In the case of `COc1ccc(C(=O)N[C@]2(C(=O)O)CC[C@H](C)CC2)cc1OCCc1cccc(CCO)c1` [Example 109, cis-1-(3-{2-[3-(2-Hydroxy-ethyl)-phenyl]-ethoxy}-4-methoxy-benzoylamino)-4-methyl-cyclohexanecarboxylic acid], the IC50 is less than 100 nM.

Take `COc1ccc(C(=O)NC2(C(=O)O)CCC(OC)CC2)cc1OCCc1cccc(C)c1` (centres unmarked) [Example 374]: the IC50 is less than 100 nM.

Consider `Cc1cccc(CCOc2cc(C(=O)NC3(C(=O)O)CCCCCC3)ccc2C(C)O)c1` (centres unmarked) [Example 61, 1-[4-(1-Hydroxy-ethyl)-3-(2-m-tolyl-ethoxy)-benzoylamino]-cycloheptanecarboxylic acid], for which the IC50 was 100 to 1000 nM.

For `COc1ccc(C(=O)NC2(C(=O)O)CCCCCC2)cc1OCCc1ccccc1C` [Example 19], the IC50 fell in the range of 100 to 1000 nM.

Regarding `CC[C@H]1CC[C@](NC(=O)c2cc(F)c(OCCO)c(-c3cc(F)cc(F)c3)c2)(C(=O)O)CC1` [Example 385], the IC50 was less than 100 nM.
